In PubChem BioAssay AID2060601 (Molecular Pharmacology Branch, DTP, NCI, 2025):
pIC50: −log10 of the molar value.

Test system: 874868-142-R-J2-PDC complex spheroids, growth % test/control
Assay: Anticancer human tumor 874868-142-R-J2-PDC patient-derived head and neck squamous carcinoma cell line growth inhibition [CLK]
Conditions: for pIC50: curve of first compound; for viability, T/C: stronger effect = lower value
Procedure, shortened: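 Multi-cell-type spheroids combined patient-derived tumor cells with HUVEC endothelial cells and human mesenchymal stem cells. Paired agents were dosed in half-log steps down from about clinical Cmax, or from 10 microM where Cmax was unknown.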

[1] = second compound 0.0316 µM, first compound 0.0316 µM
[2] = second compound 0.0316 µM, first compound 0.1 µM
[3] = second compound 0.1 µM, first compound 0.0316 µM
[4] = second compound 0.1 µM, first compound 0.1 µM
[5] = second compound 0.316 µM, first compound 0.0316 µM
[6] = second compound 0.316 µM, first compound 0.1 µM
[7] = second compound 1 µM, first compound 0.0316 µM
[8] = second compound 1 µM, first compound 0.1 µM
[9] = second compound 3.16 µM, first compound 0.0316 µM
[10] = second compound 3.16 µM, first compound 0.1 µM
[11] = second compound 10 µM, first compound 0.0316 µM
[12] = second compound 10 µM, first compound 0.1 µM
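Note: spheroids exposed to the compounds for 7 days.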
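Throughout, for viability, T/C: 100% = DMSO vehicle control viability.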

## Cn1ncnc1[C@H]1c2n[nH]c(=O)c3cc(F)cc(c23)N[C@@H]1c1ccc(F)cc1 + CNC(=O)c1ccc(Nc2nc(OC3CCCC3)c3c(-c4ccc5nc(C)oc5c4)c[nH]c3n2)c(OC)c1
Second compound 0.0316 µM
  pIC50: < 7.00
Second compound 0.1 µM
  pIC50: < 7.00
Second compound 0.316 µM
  pIC50: < 7.00
Second compound 1 µM
  pIC50: > 9.50
Second compound 3.16 µM
  pIC50: > 9.50
Second compound 10 µM
  pIC50: > 9.50
Second compound 0.0316 µM, first compound 0.000316 µM
  viability, T/C: 97.6%
Second compound 0.0316 µM, first compound 0.001 µM
  viability, T/C: 92.7%
Second compound 0.0316 µM, first compound 0.00316 µM
  viability, T/C: 102%
Second compound 0.0316 µM, first compound 0.01 µM
  viability, T/C: 94.6%
[1]
  viability, T/C: 85.1%
[2]
  viability, T/C: 73.7%
Second compound 0.1 µM, first compound 0.000316 µM
  viability, T/C: 85%
Second compound 0.1 µM, first compound 0.001 µM
  viability, T/C: 68.8%
Second compound 0.1 µM, first compound 0.00316 µM
  viability, T/C: 90.1%
Second compound 0.1 µM, first compound 0.01 µM
  viability, T/C: 79.2%
[3]
  viability, T/C: 73.5%
[4]
  viability, T/C: 66.6%
Second compound 0.316 µM, first compound 0.000316 µM
  viability, T/C: 61.4%
Second compound 0.316 µM, first compound 0.001 µM
  viability, T/C: 54.3%
Second compound 0.316 µM, first compound 0.00316 µM
  viability, T/C: 51.5%
Second compound 0.316 µM, first compound 0.01 µM
  viability, T/C: 56.3%
[5]
  viability, T/C: 59.7%
[6]
  viability, T/C: 46.3%
Second compound 1 µM, first compound 0.000316 µM
  viability, T/C: 42.7%
Second compound 1 µM, first compound 0.001 µM
  viability, T/C: 50.8%
Second compound 1 µM, first compound 0.00316 µM
  viability, T/C: 40.6%
Second compound 1 µM, first compound 0.01 µM
  viability, T/C: 36.9%
[7]
  viability, T/C: 40.8%
[8]
  viability, T/C: 40.7%
Second compound 3.16 µM, first compound 0.000316 µM
  viability, T/C: 44.5%
Second compound 3.16 µM, first compound 0.001 µM
  viability, T/C: 36.2%
Second compound 3.16 µM, first compound 0.00316 µM
  viability, T/C: 39.2%
Second compound 3.16 µM, first compound 0.01 µM
  viability, T/C: 39%
[9]
  viability, T/C: 44%
[10]
  viability, T/C: 34%
Second compound 10 µM, first compound 0.000316 µM
  viability, T/C: 44%
Second compound 10 µM, first compound 0.001 µM
  viability, T/C: 40.5%
Second compound 10 µM, first compound 0.00316 µM
  viability, T/C: 39.4%
Second compound 10 µM, first compound 0.01 µM
  viability, T/C: 39.5%
[11]
  viability, T/C: 47.6%
[12]
  viability, T/C: 31%

## CC1(C)CCC(CN2CCN(c3ccc(C(=O)NS(=O)(=O)c4ccc(NCC5CCOCC5)c([N+](=O)[O-])c4)c(Oc4cnc5[nH]ccc5c4)c3)CC2)=C(c2ccc(Cl)cc2)C1 + CN1CCN(c2cc(C(=O)Nc3cc4cc(-c5cnn(C)c5)ccc4cn3)ccn2)CC1
Second compound 0.0316 µM
  pIC50: < 5.00
Second compound 0.1 µM
  pIC50: < 5.00
Second compound 0.316 µM
  pIC50: > 7.50
Second compound 1 µM
  pIC50: > 7.50
Second compound 3.16 µM
  pIC50: > 7.50
Second compound 10 µM
  pIC50: > 7.50
[1]
  viability, T/C: 72.6%
[2]
  viability, T/C: 90.4%
Second compound 0.0316 µM, first compound 0.316 µM
  viability, T/C: 69.6%
Second compound 0.0316 µM, first compound 1 µM
  viability, T/C: 96.1%
Second compound 0.0316 µM, first compound 3.16 µM
  viability, T/C: 76.6%
Second compound 0.0316 µM, first compound 10 µM
  viability, T/C: 70%
[3]
  viability, T/C: 77.6%
[4]
  viability, T/C: 69.9%
Second compound 0.1 µM, first compound 0.316 µM
  viability, T/C: 67.1%
Second compound 0.1 µM, first compound 1 µM
  viability, T/C: 75.9%
Second compound 0.1 µM, first compound 3.16 µM
  viability, T/C: 47.2%
Second compound 0.1 µM, first compound 10 µM
  viability, T/C: 58.9%
[5]
  viability, T/C: 20.8%
[6]
  viability, T/C: 17.6%
Second compound 0.316 µM, first compound 0.316 µM
  viability, T/C: 17%
Second compound 0.316 µM, first compound 1 µM
  viability, T/C: 18.8%
Second compound 0.316 µM, first compound 3.16 µM
  viability, T/C: 12.8%
Second compound 0.316 µM, first compound 10 µM
  viability, T/C: 11.3%
[7]
  viability, T/C: 0.46%
[8]
  viability, T/C: 4.39%
Second compound 1 µM, first compound 0.316 µM
  viability, T/C: 0.38%
Second compound 1 µM, first compound 1 µM
  viability, T/C: 0.29%
Second compound 1 µM, first compound 3.16 µM
  viability, T/C: 0.25%
Second compound 1 µM, first compound 10 µM
  viability, T/C: 0.25%
[9]
  viability, T/C: 0.23%
[10]
  viability, T/C: 0.22%
Second compound 3.16 µM, first compound 0.316 µM
  viability, T/C: 0.22%
Second compound 3.16 µM, first compound 1 µM
  viability, T/C: 0.13%
Second compound 3.16 µM, first compound 3.16 µM
  viability, T/C: 0.22%
Second compound 3.16 µM, first compound 10 µM
  viability, T/C: 0.19%
[11]
  viability, T/C: 0.13%
[12]
  viability, T/C: 3.51%
Second compound 10 µM, first compound 0.316 µM
  viability, T/C: 1.25%
Second compound 10 µM, first compound 1 µM
  viability, T/C: 0.25%
Second compound 10 µM, first compound 3.16 µM
  viability, T/C: 0.17%
Second compound 10 µM, first compound 10 µM
  viability, T/C: 1.58%
